# Experimental data reported in patent US20070015937A1, “PROCESS FOR RECOVERY OF FLUORINATED CARBOXYLIC ACID SURFACTANTS FROM EXHAUST GAS” (priority 2005, published 2007).
# Marks after values point to notes of the source that are not given here.
# Experiment: Determination of bio-accumulation: urinary clearance pharmacokinetic study in rats
# Conditions: oral gavage; for Compound-related Effects: clinical signs of toxicity and gross necropsy at 96 hours post-dose
# [1] = recovery of administered amount in urine after 96 h, 73 micro Moles per kg body weight, N=3
# [2] = renal half-life, 73 micro Moles per kg body weight, N=3, urine by fluorine NMR, exponential least squares curve fitting
# [3] = no parent compound observed in the urine, based on elimination of the major metabolite C3F7—O—CHFCOO−, 73 micro Moles per kg
% Recovery (96 h) [1],T½ [2],% Recovery (96 h) [3],T½ (h) [3],Compound,Compound-related Effects (73 micro Moles per kg),T½ (h) [2]
100%,10 h,–,–,"N.O=C(O)C(F)(F)C(F)(F)OC(F)(F)C(F)(F)F [Compound 7, C2F5—O—CF2—CF2—COONH4]",–,–
42%,31 h,–,–,"N.O=C(O)C(F)(F)C(F)(F)OC(F)(F)C(F)(F)C(F)(F)C(F)(F)F [Compound 9, C4F9—O—CF2—CF2—COONH4]",Hepatomegaly,–
50%,–,–,–,"N.O=C(O)C(F)(F)OC(F)(F)C(F)(F)C(F)(F)OC(F)(F)F [Compound 4, CF3—(OCF2)3—OCF2—COONH4]",–,–
96%,12 h,–,–,"N.O=C(O)C(F)(F)OC(F)(F)OC(F)(F)F [Compound 2, CF3—OCF2—O—CF2—COONH4]",–,–
95%,11 h,–,–,"N.O=C(O)C(F)OC(F)(F)C(F)(F)C(F)(F)OC(F)(F)F (centres unmarked) [Compound 12, CF3—O—CF2—CF2—CF2—O—CHF—COONH4]",–,–
73%,–,–,–,"N.O=C(O)C(F)(F)OC(F)(F)C(F)(F)C(F)(F)OC(F)(F)F [Compound 1, CF3—O—(CF2)3—O—CF2—COONH4]",–,–
–,–,65* %,13* h,"N.O=C(O)COC(F)(F)C(F)OC(F)(F)C(F)(F)C(F)(F)F (centres unmarked) [Compound 16, C3F7—O—CFH—CF2—O—CH2—COONH4]",–,–
97%,11 h,–,–,"N.O=C(O)C(F)(F)OC(F)(F)C(F)(F)C(F)(F)F [Compound 5, C3F7—O—CF2—COONH4]",–,–
95%,8 h,–,–,"N.O=C(O)C(F)(F)C(F)(F)C(F)(F)OC(F)C(F)(F)F (centres unmarked) [Compound 15, CF3—CFH—O—(CF2)3—COONH4]",–,–
84%,12 h,–,–,"N.O=C(O)C(F)(F)C(F)OC(F)(F)C(F)(F)C(F)(F)OC(F)(F)F (centres unmarked) [Compound 11, CF3—O—CF2—CF2—CF2—O—CHF—CF2—COONH4]",–,–
94%,11 h,–,–,"N.O=C(O)C(F)(F)C(F)OC(F)(F)C(F)(F)C(F)(F)F (centres unmarked) [Compound 13, C3F7—O—CFH—CF2COONH4]",–,–
5%,95 h,–,–,"CF3CF2CF2OCF(CF3)CF2OCF2COONH4 [Compound C-3, reference compound]",Hepatomegaly,–
32%,24 h,–,–,"N.O=C(O)C(F)(F)C(F)(F)C(F)(F)C(F)(F)C(F)(F)OC(F)C(F)(F)F (centres unmarked) [Compound 14, CF3—CFH—O—(CF2)5—COONH4]",Hepatomegaly,–
82%,12 h,–,–,"N.O=C(O)C(F)(F)C(F)(F)OC(F)(F)C(F)(F)C(F)(F)F [Compound 8, C3F7—O—CF2—CF2—COONH4]",–,–

Compound,% Recovery (96 h) [1],T½ [2],% Recovery (96 h) [3],T½ (h) [3],Compound-related Effects (73 micro Moles per kg),T½ (h) [2]
"N.O=C(O)C(F)(F)C(F)(F)OC(F)(F)F [Compound 6, CF3—O—CF2—CF2—COONH4]",100%,11 h,–,–,–,–
"N.O=C(O)C(F)(F)OC(F)(F)OC(F)(F)OC(F)(F)F [Compound 3, CF3—OCF2—OCF2—OCF2—COONH4]",100%,12 h,–,–,–,–
"N.O=C(O)C(F)(F)C(F)(F)C(F)(F)C(F)(F)C(F)(F)C(F)(F)C(F)(F)F [Compound C-1, C7F15COONH4, reference compound]",6%,–,–,–,Hepatomegaly,˜550 h
"N.O=C(O)C(F)(F)OC(F)(F)C(F)(F)OC(F)(F)C(F)(F)F [Compound 10, C2F5—O—CF2—CF2—O—CF2—COONH4]",99%,10 h,–,–,–,–
